Experimental data: ChEMBL document CHEMBL1145583, “2,5-Diaminopyrimidines and 3,5-disubstituted azapurines as inhibitors of glycogen synthase kinase-3 (GSK-3)” (Bioorg Med Chem Lett, 2008)

How the values were obtained:
[1] = biological target: T1, Glycogen synthase kinase-3 alpha (Homo sapiens, UniProt P49840); assay: Inhibition of GSK3-alpha at 10 uM
Target sequence in this assay (P49840 2-483 limits assumed): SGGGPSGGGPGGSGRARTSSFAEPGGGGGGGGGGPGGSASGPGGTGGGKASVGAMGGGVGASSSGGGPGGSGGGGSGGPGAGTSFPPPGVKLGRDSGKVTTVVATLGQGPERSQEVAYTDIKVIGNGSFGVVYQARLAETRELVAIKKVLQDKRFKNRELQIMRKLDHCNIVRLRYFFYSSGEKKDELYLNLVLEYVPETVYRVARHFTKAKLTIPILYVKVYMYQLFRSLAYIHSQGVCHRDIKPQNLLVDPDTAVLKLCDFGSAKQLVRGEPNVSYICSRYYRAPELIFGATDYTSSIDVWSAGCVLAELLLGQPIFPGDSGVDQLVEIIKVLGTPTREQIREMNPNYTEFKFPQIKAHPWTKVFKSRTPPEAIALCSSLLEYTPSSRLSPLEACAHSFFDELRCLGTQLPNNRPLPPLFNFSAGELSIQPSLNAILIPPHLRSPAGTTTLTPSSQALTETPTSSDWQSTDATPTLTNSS

[2] = biological target: T2, Glycogen synthase kinase-3 beta (Homo sapiens, UniProt P49841); assay: Inhibition of GSK3-beta at 10 uM
Target sequence in this assay (P49841 whole entry, looked up): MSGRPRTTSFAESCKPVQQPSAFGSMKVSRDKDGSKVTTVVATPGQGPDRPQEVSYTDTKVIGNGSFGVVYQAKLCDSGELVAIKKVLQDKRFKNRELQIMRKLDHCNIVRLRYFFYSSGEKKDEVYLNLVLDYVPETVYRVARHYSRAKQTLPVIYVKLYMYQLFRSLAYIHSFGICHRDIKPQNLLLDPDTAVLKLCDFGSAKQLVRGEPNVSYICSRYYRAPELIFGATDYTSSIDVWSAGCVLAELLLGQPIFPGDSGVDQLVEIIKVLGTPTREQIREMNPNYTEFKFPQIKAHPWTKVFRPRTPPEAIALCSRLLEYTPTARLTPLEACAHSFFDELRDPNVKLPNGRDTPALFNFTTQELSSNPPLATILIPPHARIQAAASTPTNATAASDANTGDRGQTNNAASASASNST

[3] = biological target: T2, Glycogen synthase kinase-3 beta; assay: Inhibition of GSK3-beta
Target sequence in this assay (P49841 whole entry): as the sequence (P49841 whole entry, looked up) above

[4] = biological target: T1, Glycogen synthase kinase-3 alpha; assay: Inhibition of GSK3alpha
Target sequence in this assay (P49840 whole entry): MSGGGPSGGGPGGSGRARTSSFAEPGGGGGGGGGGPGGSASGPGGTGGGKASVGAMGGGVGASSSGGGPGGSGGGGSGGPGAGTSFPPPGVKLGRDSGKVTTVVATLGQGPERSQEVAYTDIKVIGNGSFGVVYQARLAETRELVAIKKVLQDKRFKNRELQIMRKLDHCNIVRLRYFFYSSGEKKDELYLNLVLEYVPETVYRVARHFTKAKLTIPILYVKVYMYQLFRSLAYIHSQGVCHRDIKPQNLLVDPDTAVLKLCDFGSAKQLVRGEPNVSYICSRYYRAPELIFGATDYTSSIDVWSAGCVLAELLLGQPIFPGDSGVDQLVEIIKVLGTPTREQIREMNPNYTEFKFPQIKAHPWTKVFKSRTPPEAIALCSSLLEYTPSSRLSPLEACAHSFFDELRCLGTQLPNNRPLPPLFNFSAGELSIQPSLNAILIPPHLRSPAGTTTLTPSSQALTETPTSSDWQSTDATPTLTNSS

[5] = biological target: T3, Aurora kinase A (Homo sapiens) (UniProt O14965); assay: Inhibition of Aurora A at 10 uM
T3 sequence (whole entry): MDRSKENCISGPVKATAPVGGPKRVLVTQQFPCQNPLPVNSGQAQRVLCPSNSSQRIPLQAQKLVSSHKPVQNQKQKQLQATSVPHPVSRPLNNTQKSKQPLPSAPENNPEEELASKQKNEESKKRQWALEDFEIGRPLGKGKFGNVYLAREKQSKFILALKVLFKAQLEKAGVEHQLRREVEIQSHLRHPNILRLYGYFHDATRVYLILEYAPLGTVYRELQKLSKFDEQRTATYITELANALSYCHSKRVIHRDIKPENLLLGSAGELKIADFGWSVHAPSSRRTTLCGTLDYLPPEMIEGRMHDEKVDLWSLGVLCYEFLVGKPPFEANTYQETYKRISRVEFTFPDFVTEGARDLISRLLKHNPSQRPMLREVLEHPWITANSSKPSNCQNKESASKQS

Aurora kinase A = biological target: T4, Aurora kinase A (Homo sapiens, UniProt O14965); assay: Inhibition of Aurora A
T4 sequence (O14965 whole entry): T3 sequence (whole entry)

[6] = Cmax in rat at 5 mg/kg, iv; assay type: ADME, organism-based; parameters: dose 5 mg/kg, route intravenous; conditions: in vivo
[7] = Cmax in rat at 20 mg/kg, po; assay type: ADME, organism-based; parameters: dose 20 mg/kg, route oral; conditions: in vivo
[8] = Tmax in rat at 20 mg/kg, po; assay type: ADME, organism-based; parameters: dose 20 mg/kg, route oral; conditions: in vivo
[9] = AUC in rat at 5 mg/kg, iv; assay type: ADME, organism-based; parameters: dose 5 mg/kg, route intravenous; conditions: plasma
[10] = AUC in rat at 20 mg/kg, po; assay type: ADME, organism-based; parameters: dose 20 mg/kg, route oral; conditions: plasma
[11] = Clearance in rat at 5 mg/kg, iv; assay type: ADME, organism-based; parameters: dose 5 mg/kg, route intravenous; conditions: in vivo
[12] = Volume of distribution at steady state in rat at 5 mg/kg, iv; assay type: ADME, organism-based; parameters: dose 5 mg/kg, route intravenous; conditions: in vivo, read-out: Vdss
[13] = Half life in rat at 5 mg/kg, iv; assay type: ADME, organism-based; parameters: dose 5 mg/kg, route intravenous; conditions: in vivo
[14] = Half life in rat at 20 mg/kg, po; assay type: ADME, organism-based; parameters: dose 20 mg/kg, route oral; conditions: in vivo
[15] = Oral bioavailability in rat at 20 mg/kg; assay type: ADME, organism-based; conditions: in vivo

IC50 [3] [nM]	IC50 [4] [nM]	also measured	SMILES
–	–	inhibition [1]: 16%; inhibition [2]: 14%	O=c1n(-c2ccccc2)c2nc(Nc3ccccc3)ncc2n1C1CCCCC1
105	38	–	O=C(O)CCc1ccc(Nc2ncc([N+](=O)[O-])c(NC34CC5CC(CC(C5)C3)C4)n2)cc1
198	123	inhibition [5]: 33%	O=[N+]([O-])c1cnc(N[C@H]2CC[C@H](O)CC2)nc1NC12CC3CC(CC(O)(C3)C1)C2
960	1020	–	Cn1c(=O)c2cnc(Nc3ccc(C(=O)O)cc3)nc2n1-c1ccccc1
–	–	inhibition [2]: 41%	COC(=O)COc1ccc(Nc2ncc([N+](=O)[O-])c(Nc3ccccc3)n2)cc1
477	204	–	COC(=O)COc1ccc(Nc2ncc3nnn(-c4ccccc4)c3n2)cc1
51	66	–	O=C(O)c1ccc(Nc2ncc3nnn(C45CC6CC(CC(O)(C6)C4)C5)c3n2)cc1
1170	2850	–	O=C(O)c1ccc(Nc2ncc(C3C=NN=N3)c(Nc3ccccc3)n2)cc1 (stereo not drawn)
24	20	IC50 (Aurora kinase A): 375 nM	O=C(O)CCc1ccc(Nc2ncc3nnn(-c4ccccc4)c3n2)cc1
1700	–	inhibition [1]: 94%; inhibition [2]: 96%	Cn1c(=O)n(-c2ccccc2)c2nc(Nc3ccccc3)ncc21
230	133	inhibition [5]: 65%	OC12CC3CC(C1)CC(Nc1nc(N[C@H]4CC[C@H](O)CC4)ncc1Cl)(C3)C2
2900	–	inhibition [2]: 71%	CC(C)n1c(=O)n(-c2ccccc2)c2nc(Nc3ccccc3)ncc21
760	1900	–	COc1nn(-c2ccccc2)c2nc(Nc3ccc(C(=O)O)cc3)ncc12
3200	–	inhibition [1]: 82%	O=C(O)c1ccc(Nc2ncc(Br)c(Nc3ccccc3)n2)cc1
3	4.5	IC50 (Aurora kinase A): 156 nM	O=C(O)c1ccc(Nc2ncc([N+](=O)[O-])c(NC34CC5CC(CC(O)(C5)C3)C4)n2)cc1
4000	–	inhibition [1]: 93%; inhibition [2]: 88%	O=C(O)c1ccc(Nc2ncc3[nH]c(=O)n(-c4ccccc4)c3n2)cc1
23	23	IC50 (Aurora kinase A): 7300 nM	O=C1OC(Nc2ncc3nnn(-c4ccccc4)c3n2)c2ccccc21 (stereo not drawn)
49	32	IC50 (Aurora kinase A): 292 nM	O=C(O)c1ccc(Nc2ncc3nnn(-c4ccccc4)c3n2)cc1
744	444	inhibition [5]: 23%	OC12CC3CC(C1)CC(n1nnc4cnc(N[C@H]5CC[C@H](O)CC5)nc41)(C3)C2
2400	–	inhibition [1]: 88%; inhibition [2]: 93%	CC(C)(C)n1c(=O)n(-c2ccccc2)c2nc(Nc3ccccc3)ncc21
2800	–	inhibition [1]: 52%	O=[N+]([O-])c1cnc(Nc2ccccc2)nc1Nc1ccccc1
169	96	–	O=C(O)COc1ccc(Nc2ncc3nnn(C45CC6CC(CC(O)(C6)C4)C5)c3n2)cc1

IC50 [3] [nM]	IC50 [4] [nM]	also measured	SMILES
–	–	inhibition [1]: -7%; inhibition [2]: 20%	O=c1[nH]c2cnc(Nc3ccccc3)nc2n1-c1ccccc1
490	750	–	O=C(O)c1ccc(Nc2ncc(C(F)(F)F)c(Nc3ccccc3)n2)cc1
180	350	–	O=C(O)c1ccc(Nc2ncc3c(Cl)nn(-c4ccccc4)c3n2)cc1
–	1500	–	OC12CC3CC(C1)CC(Nc1nc(N[C@H]4CC[C@H](O)CC4)ncc1F)(C3)C2
4170	3760	–	O=C(O)c1ccc(Nc2ncc(F)c(Nc3ccccc3)n2)cc1
540	1870	–	O=C(O)c1ccc(Nc2ncc(-c3ccncc3)c(Nc3ccccc3)n2)cc1
92	74	IC50 (Aurora kinase A): 85 nM	O=C(O)COc1ccc(Nc2ncc([N+](=O)[O-])c(Nc3ccccc3)n2)cc1
41	61	inhibition [5]: 45%; Cmax [6]: 24200 ng/mL; Cmax [7]: 5700 ng/mL; Tmax [8]: 0.5 h; AUC [9]: 20100 ng·h/mL; AUC [10]: 27400 ng·h/mL; clearance [11]: 4.2 mL/min/kg; Vd [12]: 0.3 L/kg; half-life [13]: 3.7 h; half-life [14]: 6.1 h; bioavailability [15]: 34%	OC12CC3CC(C1)CC(Nc1nc(N[C@H]4CC[C@H](O)CC4)ncc1C(F)(F)F)(C3)C2
281	172	–	O=[N+]([O-])c1cnc(N[C@H]2CC[C@H](O)CC2)nc1Nc1ccccc1
3500	6700	–	O=C1CN(c2ccccc2)c2nc(Nc3ccc(C(=O)O)cc3)ncc2N1
279	123	inhibition [5]: 25%	O[C@H]1CC[C@H](Nc2ncc3nnn(-c4ccccc4)c3n2)CC1
13	9	IC50 (Aurora kinase A): 128 nM	O=C(O)COc1ccc(Nc2ncc3nnn(-c4ccccc4)c3n2)cc1
628	330	–	c1ccc(Nc2ncc3nnn(-c4ccccc4)c3n2)cc1
–	–	inhibition [1]: 6%; inhibition [2]: -5%	CCCCOC(=O)c1ccc(Nc2ncc3[nH]c(=O)n(-c4ccccc4)c3n2)cc1
–	–	inhibition [1]: 1%; inhibition [2]: 3%	O=C(O)c1cccc(Nc2ncc3[nH]c(=O)n(-c4ccccc4)c3n2)c1
150	270	IC50 (Aurora kinase A): 346 nM	O=C(O)c1ccc(Nc2ncc([N+](=O)[O-])c(Nc3ccccc3)n2)cc1
26	34	–	O=C(O)c1ccc(Nc2ncc([N+](=O)[O-])c(NC34CC5CC(CC(C5)C3)C4)n2)cc1
125	91	inhibition [5]: 69%	OC12CC3CC(C1)CC(Nc1nc(N[C@H]4CC[C@H](O)CC4)ncc1Br)(C3)C2
75	80	IC50 (Aurora kinase A): 910 nM	O=C(O)c1ccc(Nc2ncc3nnn(C45CC6CC(CC(C6)C4)C5)c3n2)cc1
> 10000	–	inhibition [1]: 73%; inhibition [2]: 78%	CCn1c(=O)n(-c2ccccc2)c2nc(Nc3ccccc3)ncc21
7	13	IC50 (Aurora kinase A): 112 nM	O=C(O)/C=C\c1ccc(Nc2ncc3nnn(-c4ccccc4)c3n2)cc1
